Laboratory results: patent US7211678B2, “Stable crystals of pyrrole compound” (Nippon Shinyaku Co., Ltd., priority 2001, dated 2007)

Experiments:
[1] = Dry grinding test (planet ball mill, evaluated by powder X-ray spectrum); type: physicochemical; conditions: 1 g, 2480 rpm for 5 hours
Procedure: Type-I crystal (1 g) and type-II crystal (1 g) were respectively charged in a planet ball mill (manufactured by Fritsch Japan) and then grinded at 2480 rpm for 5 hours. The grinded crystals were evaluated by a powder X-ray spectrum.

[2] = as described in WO96/40634; cited from earlier work

Compound | crystal transition after dry grinding [1] | urinary bladder capacity increasing activity [2]
Cc1c(-c2ccccc2F)[nH]c(N)c1C#N [type-II crystal, 2-amino-3-cyano-4-methyl-5-(2-fluorophenyl)pyrrole, reference compound] | transition of crystals into type-I crystal was recognized | –
Cc1c(-c2ccccc2F)[nH]c(N)c1C#N [the pyrrole compound, 2-amino-3-cyano-4-methyl-5-(2-fluorophenyl)pyrrole] | – | excellent urinary bladder capacity increasing activity
Cc1c(-c2ccccc2F)[nH]c(N)c1C#N [type-I crystal, 2-amino-3-cyano-4-methyl-5-(2-fluorophenyl)pyrrole] | No crystal transition was recognized | –
